Measurements as given in US6780853B1, “Neuroactive steroids of the androstane and pregnane series” (priority 1995, dated 2004).
Structures can show the parent of a compound that is named as a salt.

How the values were obtained:
[1] = target: GABA receptor complex (GRC); test: [35S]TBPS binding in rat cerebral cortex P2 homogenate; settings: for IC50: concentration to inhibit 50% of control [35S]TBPS binding, 2 nM [35S]TBPS; for IMAX (maximum inhibition): maximum inhibition of [35S]TBPS binding
Text: To those skilled in the art, it is known that the modulation of [^35S]t-butylbicyclophosphorothionate ([^35S]TBPS) binding is a measure of the potency and efficacy of drugs acting at the GRC, which drugs may be of potential therapeutic value in the treatment of stress, anxiety, and seizure disorders (Squires, R. F., et al., Mol, Pharmacol., 23:326 (1983); Lawrence, L. J., et al., Biochem. Biophys. Res. Comm., 123:1130-1137 (1984); Wood, et al., Pharmacol, Exp. Ther., 231:572-576 (1984)). Several experiments were performed previously to determine the nature of the modulation of [^35S]TBPS as affected by neuroactive steroids. […] Furthermore, these compounds have high potency and efficacy at the GRC, with stringent structural requirements for such activity.
The procedures for performing this assay are fully discussed in: (1) Gee, K. W. et al., European Journal of Pharmacology, 136:419-423 (1987)); and (2) Gee, et al., Molecular Pharmacology 30:218 (1986). These procedures were performed as follows:
Brains from male Sprague-Dawley rats were removed immediately following sacrifice and the cerebral cortices dissected over ice. A P2 homogenate was prepared as previously described (Gee, et al., Molecular Pharmacology 30:218 (1986)). Briefly, the cortices were gently homogenized in 032 M sucrose followed by centrifugation at 1000×g for 10 minutes. The supernatant was collected and centrifuged at 9000×g for 20 minutes. The resultant P2 pellet was suspended as a 10% (original wet weight/volume) suspension in 50 mM Na/K phosphate buffer (pH 7.4) 200 mM NaCl to form the homogenate.
One hundred microliter […] aliquots of the P2 homogenate (0.5 milligrams (mg) protein) were incubated with 2 nanomolar (nM) [^35S]TBPS (70-110 curies/millimole; New England Nuclear, Boston, Mass.) in the presence or absence of the naturally occurring steroids or their synthetic derivatives to be tested. The tested compounds were dissolved in dimethylsulfoxide (Baker Chem. Co., Phillipsburg, N.J.) and added to the incubation mixture in 5 μL aliquots. The incubation mixture was brought to a final volume of 1 mL with buffer. Non-specific binding was defined as binding in the presence of […]. The effect and specificity of GABA (Sigma Chem. Co., St. Louis, Mo.) was evaluated by performing all assays in the presence of GABA plus (+)bicuculline (Sigma Chem. Co.). Incubations maintained at 25° C. for 90 minutes (steady state conditions) were terminated by rapid filtration through glass fiber filters (No. 32, Schleicher and Schuell, Keene, N.H.). Filter-bound radioactivity was quantitated by liquid scintillation spectrophotometry. Kinetic data and compound/[^35S]TBPS dose-response curves were analyzed by nonlinear regression using a computerized iterative procedure to obtain rate constants and IC50 (concentration of compound at which half-maximal inhibition of basal [^35S]TBPS binding occurs) values.
Various compounds were screened to determine their potential as modulators of [^35S]TBPS binding in vitro. These assays were performed in accordance with the above discussed procedures. Based on these assays, we have established the structure-activity requirements for their specific interaction at the GRC and their rank order potency and efficacy. Experimental data obtained in this assay for a number of 3α-hydroxypregnan-20-one derivatives is discussed in Gee, K. W. et al., European Journal of Pharmacology, 136:419-423 (1987) and in U.S. Pat. No. 5,232,917. Table 1 provides IC50 and maximum inhibition (IMAX) measurements for numerous compounds, including examples of compounds disclosed and claimed herein. IC50 is defined as concentration of compounds to inhibit 50% of control [^35S]TBPS binding. It is an indication of a compound's in vitro potency. Maximum inhibition is an indication of a compound's in vitro efficacy.

[2] = test system: metrazol induced convulsions; test: Antimetrazol activity in mice; type: in vivo; settings: 10 mg/kg
Method: Experiments were also performed to determine the physiological relevance of neuroactive steroid and GABA receptor interactions by assessing the ability of compounds of the present invention to prevent metrazol induced convulsions in mice. Mice were injected with various doses of the test compounds of the invention, 10 minutes prior to the injection of metrazol. The time to onset of myoclonus (presence of forelimb clonic activity) induced by metrazol was determined by observing each mouse for a period of 30 minutes. In control mice, metrazol (85 mg/kg) will induce convulsion in 95% of the animals.
The anticonvulsant tests are similar to that described above.

[3] = test system: time spent on the open-arms; test: Elevated plus-maze test; type: in vivo, N.I.H. Swiss-Webster mice; settings: IP, 50% hpbcd, 10 mg/kg
Text: The theoretical basis for the elevated plus-maze test is similar to that of the fight/dark transition test. As it was described previously by Pellow et al. J. Neurosci. Meth. 14:149-167 (1985)), the elevated plus-maze apparatus is designed to utilize the mice's natural aversion to open spaces. The apparatus consists of two open-arms and two enclosed-arms. The elevated plus-maze test allows for two measures of anxiety, the number of entries into the open-arms and the time spent on the open-arms, both expressed as a percentage of the total number of entries and time spent in/on both the open-arms and enclosed-arms.
Male N.I.H Swiss-Webster mice (Harlan, Indianapolis, Ind.) weighing 15-20 g were housed four per cage in polyethylene cages with sawdust bedding. The colony room was environmentally controlled (22° C.) with a 12 hr light/dark cycle (0600-1800 hr). Food and water were available ad libitum, except during testing. The experiments were run from 0700-1500 hr and groups were counterbalanced for time of day effects. Mice were only administered drug or vehicle once.
The method used was previously described (Lister, Psychopharmacol. 92:180-185 (1987)). The apparatus included two open arms perpendicular to two enclosed arms elevated 50 cm from the floor. Each arm was 50 cm long and the walls of the enclosed arms were 40 cm tall. The maze was made completely of black plexiglass. Incandescent 200 W light bulbs were above each of the open arms to produce a strong contrast between the open arms and the enclosed arms.
[…] Swiss-Webster mice were placed in the center of the plus-maze facing an open arm. During the 5 min test period, the number of entries onto the open arms and the enclosed arms, and the time spent in the open arms and enclosed arms were measured. All four paws had to be within an arm for the dependent variable to be measured. Therefore, the time spent in the center of the maze is not counted, so the total time spent in the open arms and the enclosed arms may not equal 5 min.

[4] = IP, 50% hpbcd, 10 min before metrazol 85 mg/kg

Compound | IC50 [1] [µM] | IMAX (maximum inhibition) [1] [%] | other results
CC12CCC(O)(C#CCCO)CC1CCC1C2CCC2(C)C(C(=O)CSc3ccncc3)CCC12 (stereo not drawn) [3α-Hydroxy-3β-(4-hydroxybutynyl)-21-(pyrid-4-ylthio)-5β-pregnan-20-one] | 0.015 | 100 | % Protected [2, 4]: 50%
COC1CCC2C3CCC4CC(O)(C#CCCO)CCC4(C)C3CCC12C (stereo not drawn) [3α-Hydroxy-3β-(4′-hydroxybutyn-1-yl)-17α-methoxy-5β-androstane] | – | – | % Protected [2, 4]: 50%
C#CCC1(O)CCC2(C)C(CCC3C2CCC2(C)C(OC)CCC32)C1 (stereo not drawn) [3α-Hydroxy-17β-methoxy-3β-(2-propynyl)-5α-androstane] | 0.387 | 101 | % Protected [2, 4]: 12.5%
COC1CCC2C3CCC4CC(O)(C#CCCO)CCC4(C)C3CCC12C (stereo not drawn) [3β-(4′-Hydroxybutyn-1′-yl)-3α-hydroxy-17β-methoxy-5α-androst] [3β-(4′-Hydroxy-1-′-butynyl)-3α-hydroxy-17β-methoxy-5α-androstane] | 0.047 | 104 | Plus-Maze (% Control), time spent on the open-arms [3]: 158 % Control
COC1CCC2C3CCC4CC(O)(C#CCCO)CCC4(C)C3CCC12C (stereo not drawn) [3β-(4′-Hydroxybutyn-1′yl)-3α-hydroxy-17β-methoxy-5β-androsta] [3β-(4′-Hydroxy-1-′-butynyl)-3α-hydroxy-17β-methoxy-5β-androstane] | 0.026 | 105 | % Protected ([2]; IP, 50% hpbcd, 10 min before metrazol 85 mg/kg, listed as 3α-Hydroxy-3β-(4′-hydroxybutyn-1-yl)-17β-methoxy-5β-androstane): 75%
COC1CCC2C3CCC4CC(O)(CCl)CCC4(C)C3CCC12C (stereo not drawn) [3β-Chloromethyl-3α-hydroxy-17β-methoxy-5α-androstane] | 0.361 | 98 | % Protected [2, 4]: 12.5%
C=C[C@@]1(O)CC[C@@]2(C)[C@@H](CC[C@@H]3[C@@H]2CC[C@]2(C)[C@@H](OC)CC[C@@H]32)C1 [3β-Ethenyl-3α-hydroxy-17β-methoxy-5α-androstane] | 0.133 | 104 | Plus-Maze (% Control), time spent on the open-arms [3]: 127 % Control
C#CC1(O)CCC2(C)C(CCC3C2CCC2(C)C(C(=O)CSCCCOS(=O)(=O)O)CCC32)C1 (stereo not drawn) [3β-Ethynyl-3α-hydroxy-21-thiopropanesulfate-5β-pregnan-20-one sodium salt] | 0.113 | 104 | –
CC(=O)[C@H]1CC[C@H]2[C@@H]3CC[C@H]4C[C@@H](O)CC[C@]4(C)[C@H]3CC[C@]12C [3β-Hydroxy-5α-pregnan-20-one, reference compound] | > 1000 | 33 | –
C#C[C@@]1(O)CC[C@@]2(C)[C@@H](CC[C@@H]3[C@@H]2CC[C@]2(C)[C@@H](C(=O)CSc4ccncc4)CC[C@@H]32)C1 [3β-ethynyl-3α-hydroxy-21-(pyrid-4-ylthio)-5α-pregnan-20-one] | 0.043 | 103 | –
C#C[C@@]1(O)CC[C@@]2(C)[C@H](CC[C@@H]3[C@@H]2CC[C@]2(C)[C@@H](C(=O)CSCCCO)CC[C@@H]32)C1 [3β-ethynyl-3α-hydroxy-21-hydroxypropylthio-5β-pregnan-20-one] | 0.093 | 97 | –
C#CC1(O)CCC2(C)C(CCC3C2CCC2(C)C(C(=O)CSCCOS(=O)(=O)O)CCC32)C1 (stereo not drawn) [3β-ethynyl-3α-hydroxy-21-thioethanesulfate-5β-pregnan-20-one trimethyl ammonium salt] | 0.322 | 101 | –
C#CC1(O)CCC2(C)C(CCC3C2CCC2(C)C(C(=O)CSCCCS(=O)(=O)O)CCC32)C1 (stereo not drawn) [3β-ethynyl-3α-hydroxy-21-thiopropanesulfonate-5β-pregnan-20-one sodium salt] | 0.343 | 97 | –
C#CC1(O)CCC2(C)C(CCC3C2CCC2(C)C(C(=O)CSCCC(=O)O)CCC32)C1 (stereo not drawn) [3β-ethynyl-3α-hydroxy-21-thiopropanoate-5β-pregnan-20-one sodium salt] | 1.02 | 101 | –
C[C@]12C[C@H](O)[C@H]3[C@@H](CCC4=CC(=O)CC[C@@]43C)[C@@H]1CC[C@@H]2C(=O)CO [4-Pregnan-11β,21-diol-3,20-dione, reference compound] | > 1000 | 30 | –
C[C@]12CC[C@@H]3c4ccc(O)cc4CC[C@H]3[C@@H]1CC[C@@H]2O [17β-Estradiol, reference compound] | – | 0 | –
CC1(C2CCC3C4CCC5CC(O)(C(F)(F)F)CCC5C4CCC32C)OC(C(=O)[O-])C(C(=O)[O-])O1.[K+].[K+] (stereo not drawn) [20,20-[2′,3′-Bis(carboxy)ethylenedioxy]-3α-hydroxy-3β-trifuoromethyl-5β-19-norpregnane, dipotassium salt] | – | – | % Protected ([2]; PO, 10% hpbcd): 25%
COCC1(O)CCC2(C)C(CCC3C2CCC2(C)C(C(=O)CS(=O)(=O)c4ccc(F)cc4)CCC32)C1 (stereo not drawn) [21-(4′-fluorophenyl)sulfonyl-3α-hydroxy-3β-methoxymethyl-5α-pregnan-20-one] | 0.049 | 99 | –
COCC1(O)CCC2(C)C(CCC3C2CCC2(C)C(C(=O)CSc4ccc(F)cc4)CCC32)C1 (stereo not drawn) [21-(4′-fluorophenylthio)-3α-hydroxy-3β-methoxymethyl-5α-pregnan-20-one] | 0.176 | 97 | –
CC(C)CCC[C@@H](C)[C@H]1CC[C@H]2[C@@H]3CC=C4C[C@@H](O)CC[C@]4(C)[C@H]3CC[C@]12C [Cholesterol, reference compound] | – | 0 | –
CC(=O)[C@H]1CC[C@H]2[C@@H]3CCC4=CC(=O)CC[C@]4(C)[C@H]3CC[C@]12C [Progesterone, reference compound] | 5.2 | 100 | –
